Reference: the METLIN SMRT retention time set (Domingo-Almenara et al. 2019)

Experiment: gradient 5% acetonitrile 3 min, to 50% in 2 min, to 85% in 15 min, held 3 min, 100 µL/min
Details: column: Zorbax Extend-C18 2.1 x 50 mm; eluents: water / acetonitrile, 0.1% formic acid
Procedure, shortened: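 Standards, all pure, were combined into mixtures of ~100 molecules and run at 100 μL/min on a Zorbax Extend-C18 column (2.1 × 50 mm, 1.8 μm) with water and acetonitrile, each containing 0.1% formic acid. A coupled quadrupole time-of-flight mass spectrometer operated in positive and negative ionization mode. Retention time values come from computationally picked adduct peaks, each inspected manually.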

## CCC(=O)N1CCC(Oc2nccnc2N(C)C)C1 (centres undefined)
  RP-LC retention time: 616 s

## COc1ccc(-c2noc(Cc3nnc(-c4ccc(C)c(F)c4)o3)n2)cc1
  RP-LC retention time: 1050 s

## O=C(NC1CCCN(c2cc(-c3ccccc3)[nH]n2)C1)c1ccc2[nH]ccc2c1 (centres undefined)
  RP-LC retention time: 729 s

## COc1ccc(NS(=O)(=O)c2cn(C(C)C)c3ncccc23)cc1OC
  RP-LC retention time: 876 s

## CCc1cccc(NC(=O)N2c3ccccc3CC2c2nc(CCOC)no2)c1 (centres undefined)
  RP-LC retention time: 1060 s

## COc1ccc(OC)c2sc(NC(=O)CS(=O)(=O)c3ccc(Cl)cc3)nc12
  RP-LC retention time: 854 s

## Cc1ccc(NC(=O)NC2CCN(c3ccc(F)c(C)c3)C2=O)c(C)c1 (centres undefined)
  RP-LC retention time: 874 s

## COc1ccc(-c2nc3cccnc3n2C2CCN(C(=O)NCc3ccco3)C2)cc1 (centres undefined)
  RP-LC retention time: 627 s

## CCn1cc(C)c(C(=O)O)c1CC(=O)N1CCC(c2ccccc2)C1 (centres undefined)
  RP-LC retention time: 802 s

## O=C(c1csc(N2CCN(c3ccccc3)CC2)n1)N1CCCCC1
  RP-LC retention time: 1020 s

## CCCS(=O)(=O)N1CCCCC1c1nc(-c2cccnc2)n[nH]1 (centres undefined)
  RP-LC retention time: 601 s

## COc1ccccc1C(=O)Nc1ccc2nc(N3CCN(C4CCCCC4)CC3)cc(C(=O)O)c2c1
  RP-LC retention time: 638 s

## COCCNC(=O)C1CCCN(c2nccc(C)n2)C1 (centres undefined)
  RP-LC retention time: 584 s

## CC1(c2noc(C3CC3)n2)CCN(C(=O)C2CCN(S(=O)(=O)N3CCOCC3)CC2)CC1
  RP-LC retention time: 784 s

## Cc1cc(-c2ccc(S(=O)(=O)N3CCC(C(=O)NCc4ccco4)CC3)o2)n[nH]1
  RP-LC retention time: 733 s

## Cc1cccc(-c2nnc(C)c(N3CCCC3)n2)c1
  RP-LC retention time: 656 s

## CCOc1ccc(NC(=O)C2CCN(S(C)(=O)=O)c3cc(C)ccc3O2)cc1 (centres undefined)
  RP-LC retention time: 972 s

## COCCCNC(=O)C(C)n1c(=O)c(C(F)(F)F)nc2cc(C)c(C)cc21 (centres undefined)
  RP-LC retention time: 1010 s

## COC(=O)c1ccc2c(=O)n(-c3ccc(C)c(F)c3)c(N3CCSC3)nc2c1
  RP-LC retention time: 1150 s

## Cc1cccc2nnc(N3CCC(C(=O)NCC4CCCCC4)CC3)n12
  RP-LC retention time: 709 s

## CCCNC(=O)CCc1nc2ccccc2n(CC(=O)Nc2ccc(C(=O)OCC)cc2)c1=O
  RP-LC retention time: 792 s

## O=C(c1cccnc1N1CCNC(c2ccccc2)C1)N1CCN(c2ncccn2)CC1 (centres undefined)
  RP-LC retention time: 604 s

## O=S(=O)(NCc1ccccc1F)c1ccccc1-c1nc(-c2cccc(F)c2)no1
  RP-LC retention time: 1170 s

## COc1cccc(N2CCN(C(=O)c3cc4sccc4n3C)CC2)c1
  RP-LC retention time: 988 s

## CC(C)OCCCNC(=O)CN1C(=O)C2CCCCN2c2ccc(C(=O)N3CCCC3)cc21 (centres undefined)
  RP-LC retention time: 746 s

## CCn1c(=O)c(C(=O)N2CCCC2)nc2ccccc21
  RP-LC retention time: 665 s

## CCn1c(N2CCCC(C(=O)NCCN3CCN(c4ccccc4)CC3)C2)cc(=O)n(C)c1=O (centres undefined)
  RP-LC retention time: 638 s

## COc1ccc(NC(=O)Cn2nc(N3CCSCC3)c3ccccc3c2=O)cc1Cl
  RP-LC retention time: 949 s

## COC(=O)c1ccc(NC(=O)N2CCOc3ccc(Cl)cc32)cc1
  RP-LC retention time: 1000 s

## Cc1ccnc(Nc2nc(CC(=O)NCCc3cccs3)cs2)c1
  RP-LC retention time: 581 s

## O=S(=O)(Cc1ccccc1)N1CCC(c2noc(-c3ccncc3)n2)C1 (centres undefined)
  RP-LC retention time: 812 s

## CCOC(=O)C1=C(CN2CCCC2)NC(=O)NC1c1ccc(OC)cc1 (centres undefined)
  RP-LC retention time: 597 s

## O=c1n(Cc2ccccc2)nc2ccc(S(=O)(=O)N3CCOCC3)cn12
  RP-LC retention time: 778 s

## CN(CCc1noc(COc2ccc(F)cc2)n1)C(=O)Nc1ccc(F)c(Cl)c1
  RP-LC retention time: 953 s

## Cc1c(S(=O)(=O)NCc2ccccc2)c(C)n(C)c1-c1nnc(C2CCC2)o1
  RP-LC retention time: 972 s

## O=C(c1ccc2c(c1)N(Cc1ccccc1)CCS2)N1CCN(c2ccccn2)CC1
  RP-LC retention time: 698 s

## O=c1c2cc3c(cc2nc(SCc2nc(-c4ccccc4)no2)n1-c1ccc(F)cc1)OCO3
  RP-LC retention time: 1140 s

## Cc1nc(-c2csc(S(=O)(=O)N3CCC(C(=O)NCc4cccnc4)CC3)c2)no1
  RP-LC retention time: 618 s

## COCCN1C(=O)CCc2cc(NS(=O)(=O)c3ccccc3F)ccc21
  RP-LC retention time: 726 s

## CCCS(=O)(=O)N1CC(=O)N(c2ccc(F)cc2F)C(C)(C(=O)NC2CCCCCC2)C1 (centres undefined)
  RP-LC retention time: 979 s

## Cc1ccc(CN2CC(c3ncc(C)n3Cc3ccccc3)C2)s1
  RP-LC retention time: 587 s

## COCC1(O)CCOC2(CCN(Cc3ccc(C)c(C)c3)CC2)C1 (centres undefined)
  RP-LC retention time: 627 s

## Cc1ccc(C(=O)N2CC=C(C(=O)NC3CC3)CC2)cc1C
  RP-LC retention time: 797 s

## CCS(=O)(=O)N(C1CC1)C1CCOC2(CCN(C(=O)C3CC3)CC2)C1 (centres undefined)
  RP-LC retention time: 710 s

## Cc1ccc(Nc2cc(N3CCC(C(=O)NCc4ccco4)CC3)ncn2)cc1
  RP-LC retention time: 664 s

## O=C(CN1C(=O)c2ccccc2C1=O)Nc1nnc(C2COc3ccccc3O2)o1 (centres undefined)
  RP-LC retention time: 714 s

## CC1=C(c2ccccc2)S(=O)(=O)N=C1N1CCCN(C(=O)c2ccccc2Cl)CC1
  RP-LC retention time: 811 s

## COC(=O)c1ccccc1Nc1c(-c2ccc(SC)cc2)nc2cnccn12
  RP-LC retention time: 1070 s

## CCN(CC)C(=O)C1CCCN(C(=O)c2nn(C)c3c2CN(C(=O)C2CCC2)CC3)C1 (centres undefined)
  RP-LC retention time: 681 s

## COC(=O)c1ccccc1NC(=O)CCn1c(=O)oc2ccccc21
  RP-LC retention time: 825 s

## O=C1c2ccccc2C(=O)N1c1nc(-c2ccccc2)cs1
  RP-LC retention time: 864 s

## O=c1c2sccc2n(Cc2nc(-c3ccc(F)cc3)no2)c(=O)n1Cc1ccccc1Cl
  RP-LC retention time: 1160 s

## Cc1cc(C)cc(OCCNC(=O)Nc2cc(F)ccc2F)c1
  RP-LC retention time: 992 s

## O=C(Cn1c(=O)c2cccn2c2ccc(F)cc21)NCc1ccco1
  RP-LC retention time: 767 s

## COc1cc(NC(=O)N2CC(C)Oc3ccccc32)cc(OC)c1OC (centres undefined)
  RP-LC retention time: 862 s

## CC(=O)N1CC(C)Oc2ccc(S(=O)(=O)N3CCC(c4ccncc4)CC3)cc21 (centres undefined)
  RP-LC retention time: 572 s

## CN(C)c1nccnc1OC1CCN(C(=O)c2ccnn2C)C1 (centres undefined)
  RP-LC retention time: 634 s

## O=C(Nc1ccc(C2(C(=O)N3CCCCCC3)CCC2)cc1)C1CC1
  RP-LC retention time: 844 s

## Cc1cc(C)cc(NC(=O)N2CCC(n3cnc4c(Cl)cccc4c3=O)CC2)c1
  RP-LC retention time: 892 s

## c1cc(-c2noc(-c3cccnc3)n2)cc(-c2ccn[nH]2)c1
  RP-LC retention time: 777 s

## COc1ccc2cc(C(=O)N3CCCN(c4cc(=O)n(C)c(=O)n4C)CC3)[nH]c2c1
  RP-LC retention time: 688 s

## CCOC(=O)c1ccc(NC(=O)CSc2ccc(N3CCCC(C(=O)NC4CC4)C3)nn2)cc1 (centres undefined)
  RP-LC retention time: 678 s

## CCOC(=O)CNC(=O)N1CCN(Cc2nc3cc(C)ccc3o2)CC1
  RP-LC retention time: 616 s

## COC(=O)C1CN(c2ccc(OC)cc2)N=C1C(C)=O (centres undefined)
  RP-LC retention time: 850 s

## CC1CCN(S(=O)(=O)c2ccc(-c3nnc(C(=O)NCCCN4CCOCC4)o3)cc2)CC1
  RP-LC retention time: 664 s

## COc1cccc(-c2ccc(=O)n(CCc3nc(-c4cc(OC)cc(OC)c4)no3)n2)c1
  RP-LC retention time: 955 s

## CCOC(=O)c1ccc(N2C(=O)Cn3cccc3C2C(=O)NC2CCCCC2C)cc1 (centres undefined)
  RP-LC retention time: 994 s

## Cc1cc(NC(=O)c2csc(-c3cn(C)c4ncccc34)n2)ccc1F
  RP-LC retention time: 1050 s

## Cc1nccn1-c1cc(N2CCCCC2)nc2ccnn12
  RP-LC retention time: 594 s

## C=CCn1c(=O)c2c(nc3n2CCCCN3c2ccc(OCC)cc2)n(C)c1=O
  RP-LC retention time: 917 s

## Cc1ccc(C)c(C(=O)N2CCC3(CC2)N=C(c2ccccc2)NO3)c1
  RP-LC retention time: 855 s

## CCOc1ccc(C(=O)Nc2ccc(Nc3ccc(-n4cccn4)nn3)cc2)cc1OCC
  RP-LC retention time: 782 s

## CN(C)c1cccc(C(=O)Nc2cnn(-c3ncc(N4CCCC4)cn3)c2)c1
  RP-LC retention time: 749 s

## CCOc1nc2ccccc2nc1N1CCCC(C(=O)Nc2ccccc2C(C)C)C1 (centres undefined)
  RP-LC retention time: 1230 s

## COC(=O)c1ccc(NC(=O)C(=O)NCCN2CCN(c3ccccc3OC)CC2)cc1
  RP-LC retention time: 581 s

## CC(C)c1nnc(-c2ccc(S(=O)(=O)NC3CCCCCC3)o2)o1
  RP-LC retention time: 985 s

## Cc1oc(-c2[nH]ncc2C(=O)N(C)C)cc1S(=O)(=O)Nc1cccc(F)c1
  RP-LC retention time: 668 s

## Cc1ccc(-n2cc3c(N4CCCC(C(=O)NCc5cccc(C(F)(F)F)c5)C4)ncnc3n2)cc1 (centres undefined)
  RP-LC retention time: 772 s

## COc1cc(NC(=O)CN2C(=O)CC(c3ccc(Cl)cc3)=Nc3cccnc32)cc(OC)c1
  RP-LC retention time: 1000 s

## CC(C)C(=O)N1CCc2cc(-c3ccc(C(=O)NCCN4CCN(C)CC4)cc3)ccc21
  RP-LC retention time: 608 s

## Cc1nn(C)c2nc(OCC(=O)Nc3ccc(Br)cc3F)cc(C(F)(F)F)c12
  RP-LC retention time: 1080 s

## Cn1c(C(=O)N2CCCC(C(=O)N3CCc4ccccc4C3)C2)cc2sccc21 (centres undefined)
  RP-LC retention time: 925 s

## Cc1ccc(NC(=O)N2CCC(N(C(=O)C3CC3)C3CCOCC3)CC2)c(C)c1
  RP-LC retention time: 722 s

## Cc1cc(N2CCN(S(=O)(=O)c3ccc(F)c(F)c3)CC2)nc(N2CCOCC2)n1
  RP-LC retention time: 664 s

## CC1(CNC(=O)Cc2c[nH]c3ccccc23)CCOCC1
  RP-LC retention time: 668 s

## Cc1oc2c(c1C(=O)Nc1ccc(C(F)(F)F)cc1)C1=NC(C)(C)CN1C=N2
  RP-LC retention time: 728 s

## Cc1ccc(-n2c(=O)c3sccc3n(Cc3nc(-c4cccc(C)c4)no3)c2=O)cc1
  RP-LC retention time: 1060 s

## COc1ccccc1CCC(=O)NC(C(=O)Nc1nc2ccccc2[nH]1)C(C)C (centres undefined)
  RP-LC retention time: 721 s

## CCc1noc(-c2cccnc2N2CCCN(Cc3ccc(Br)cc3)CC2)n1
  RP-LC retention time: 730 s
